# Measured values reported in patent publication US10450549B2, “Aryloxyphenoxypropionate tolerance in turfrgass species and use of AAD1 as a selectable marker” (Dow AgroSciences, LLC, priority 2004, dated 2019).
# Legend:
# Non-transformed hybrids = experiment: Field tolerance to quizalofop and 2,4-D: non-transformed hybrids; assay type: in vivo, corn; conditions: for % Injury 3 WAA (0-100 scale): 140 g ae/ha
# Excerpt: Two field trials were established at field stations in Hawaii and Indiana. […] The hybrid Hi-II×5XH571 is of the same parentage as the AAD1 (v3) event lines. The hybrid Croplan 585SR is a sethoxydim resistant line.
# The experimental design was a split-plot with four replications. The main plot was herbicide treatment and the sub-plot was AAD1 (v3) event or comparison hybrid. Plots were one row by 3.7 meters with approximately twenty-five seeds planted in each row. For AAD1 events, seeds from a different lineage within the event were planted in each replicate.
# Glufosinate at 560 g ai/ha was applied to AAD1 (v3) plots at the V2 stage to eliminate non-transformed plants. […] Treatments were applied using backpack broadcast boom equipment delivering 187 L/ha carrier volume at 130-200 kpa pressure.
# Quizalofop treated plots were visually assessed for crop injury at one and three weeks after application (WAA) using a 0-100% scale, where 0 equals no injury and 100 equals complete death.
# AAD1 (v1) = target: T1, AAD1 (v1) (Sphingobium herbicidovorans, UniProt Q8KSC8); experiment: HPLC analysis of herbicide degradation by AAD1 (v1) cell extract; assay type: biochemical
# T1 construct: made in house; host or cells: E. coli BL-21 Star (DE3), plasmid pDAB3203
# [1] = test system: AAD1-transformed T0 ‘Crenshaw’ creeping bentgrass events (pDAB3878, pDAB5042); experiment: Quizalofop-p-ethyl postemergence on AAD1-transformed T0 Crenshaw creeping bentgrass, visual % injury; assay type: in vivo, Agrostis stolonifera L. var. palustris
# Description: After molecular confirmation was utilized to identify transgenic events, a number of transgenic events were tested for herbicide tolerance. Specific isolated transgenic events were selected and maintained vegetatively through division of the crowns and replanting the clonal pieces into fresh growth medium. Clonally propagated plants were maintained by periodic “mowing” of vegetative tissues.
# Growth medium was prepared by mixing Promix® and sand in a 2 to 1 ratio. The medium was contained in plastic pots with a surface area of 84.6 square centimeters (cm^2). When required to maintain plant health, a fungicide, insecticide, and/or other chemical or physical treatment was applied to stock plants. The plants were maintained in a greenhouse with an approximate 14 hour photoperiod which was maintained at 24-27° C. during the day and 22-25° C. during the night. Nutrients (Peters Excel® 15-5-15 5-Ca 2-Mg and iron chelate) were applied in the irrigation solution as needed, and water was added on a regular basis. Supplemental lighting was provided with overhead metal halide 1000-Watt lamps when photosynthetically active radiation (PAR) dropped below 500.
# (§1) Selected T0 plants were sprayed with quizalofop-p-ethyl (Assure II®, DUPONT, Wilmington, Del.) at rates ranging from 60 to 2,240 g ae/ha. […] This rate also controls susceptible monocot weed species. Measured amounts were placed individually in 25 mL glass vials and dissolved in a 4 mL volume of 1.0% (v/v) Agri-Dex® Crop Oil Concentrate (COC) from HELENA CHEMICAL (Collierville, Tenn.). Application solutions were prepared by serial dilution of the highest rate applied. One-half the volume of the highest rate stock solution (2 mL) was transferred to a clean 25 mL vial containing an equal volume of 1% COC and the diluted solution was mixed. Additional dilutions were prepared similarly by removing one-half the volume of the previous concentration (2 mL), and adding to an equal volume of 1% COC and mixing. When preparing the lowest concentration, the remaining one-half volume was discarded. All 2 mL stock solutions were further diluted by adding 10 mL aqueous mixture of 1.0% (v/v) COC, so that the final spray solutions were 12 mL in volume and contained 1.0% (v/v) COC.
# (§2) Spray solutions were applied to the plant material with an overhead Mandel™ track sprayer equipped with a 8002E nozzles calibrated to deliver 187 L/ha over an application area of 0.503 square meters (m^2) at a spray height of 18 inches (46 cm) above average plant canopy height. Control plants were sprayed in the same manner with the COC blank.
# (§3) The treated plants and control plants were placed in a greenhouse, and watered by sub-irrigation to prevent wash-off of the test compounds. At various times after application, the condition of the test plants as compared with that of the untreated plants was determined visually and scored on a scale of 0 to 100 percent (where 0 corresponds to no injury or growth inhibition and 100 corresponds to complete kill). Regenerated, non-transformed (NT) ‘Crenshaw’ or elite line 2905-2 creeping bentgrass plants and/or seed-derived clonally propagated plants served as quizalofop sensitive controls.
# [2] = test system: non-transformed (NT) and seed-derived (WT) creeping bentgrass; experiment: Quizalofop-p-ethyl postemergence on non-transformed / seed-derived creeping bentgrass controls; assay type: in vivo, Agrostis stolonifera L. var. palustris
# Description: as §1, §2, §3
# [3] = test system: AAD1 (v3)-transformed T0 corn events; experiment: Tolerance of T0 AAD1 (v3) corn plants (pDAB3404) to postemergence AOPP herbicides; assay type: in vivo
# T1 sequence (Q8KSC8 whole entry): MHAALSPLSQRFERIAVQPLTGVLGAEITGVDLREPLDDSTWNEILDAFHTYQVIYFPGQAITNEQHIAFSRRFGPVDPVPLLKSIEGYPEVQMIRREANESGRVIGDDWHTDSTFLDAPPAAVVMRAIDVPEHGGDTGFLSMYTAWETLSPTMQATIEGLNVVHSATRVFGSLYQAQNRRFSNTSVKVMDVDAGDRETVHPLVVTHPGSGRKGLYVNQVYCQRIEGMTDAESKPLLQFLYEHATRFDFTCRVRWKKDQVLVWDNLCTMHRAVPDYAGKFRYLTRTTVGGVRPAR
compound,measurement,setting,value
"O=C(O)COc1ccc(Cl)cc1Cl [2,4-D, 2,4-dichlorophenoxyacetic acid]",epinastic leaning in non-transformed hybrids,"Non-transformed hybrids; 1120 g ae/ha, 2 DAA",11-33%
same,brace root deformation rating (0-10 scale),"Non-transformed hybrids; 1120 g ae/ha, non-transformed hybrids, 3-4 WAA",9
same,"conversion of 2,4-D to DCP","AAD1 (v1); partially purified proteins, in vitro",50-100%
same,"2,4-D degraded to DCP as measured by HPLC","AAD1 (v1); regardless of assay conditions (longer incubations, more enzyme)",50-75%
C[C@@H](Oc1ccc(Oc2cnc3cc(Cl)ccc3n2)cc1)C(=O)O [quizalofop],"mean injury, pDAB5042 Crenshaw events","[1]; 60, 120, 240 and 480 g ae/ha, 21 to 24 DAA",less than 10%
same,"mean injury, pDAB3878 Crenshaw events","[1]; 120 g ae/ha, 11 DAA",about 20%
same,"mean injury, pDAB3878 Crenshaw events","[1]; 120 g ae/ha, 14 DAA",about 25%
same,"mean injury, pDAB3878 Crenshaw events","[1]; 120 g ae/ha, 20 DAA",about 20%
same,"mean injury, pDAB3878 Crenshaw events","[1]; 480 g ae/ha, 11 DAA",~30%
same,"mean injury, pDAB3878 Crenshaw events","[1]; 480 g ae/ha, 14 DAA",~30%
same,"mean injury, pDAB3878 Crenshaw events","[1]; 480 g ae/ha, 20 DAA",about 20%
same,injury of individual pDAB5042 Crenshaw events,"[1]; 480 g ae/ha, 21-24 DAA, all events except 204 and 227",≤ 20%
same,injury of non-transformed hybrids,"Non-transformed hybrids; 70 g ae/ha, field",80-100%
same,% Injury 3 WAA (0-100 scale),"Non-transformed hybrids; HI, CROPLAN 585SR",96%
same,% Injury 3 WAA (0-100 scale),"Non-transformed hybrids; HI, DK493",100%
same,% Injury 3 WAA (0-100 scale),"Non-transformed hybrids; HI, HI-II X 5XH571",100%
same,% Injury 3 WAA (0-100 scale),"Non-transformed hybrids; IN, CROPLAN 585SR",80%
same,% Injury 3 WAA (0-100 scale),"Non-transformed hybrids; IN, DK493",100%
same,% Injury 3 WAA (0-100 scale),"Non-transformed hybrids; IN, HI-II X 5XH571",100%
same,"injury of control, non-transgenic plants","[2]; 60 g ae/ha, 21 to 24 DAA",about 70%
same,"injury of control, non-transgenic plants","[2]; 120 and 480 g ae/ha, 11, 14, 20 DAA",about 80% injury to greater than 90% injury
same,"injury of control, non-transgenic plants","[2]; 120 g ae/ha, 21 to 24 DAA",~80%
same,"injury of control, non-transgenic plants","[2]; 240 g ae/ha, 21 to 24 DAA",~90%
same,"injury of control, non-transgenic plants","[2]; 480 g ae/ha, 21 to 24 DAA",~100%
same,injury of most AAD1 (v3) T0 lines,"[3]; 8× field dose (64× lethal dose), 14 DAT",no visible injury
same,% Injury 14 DAT,"[3]; 8.8 g ae/ha, construct 3404 event 001 clone 017",0%
same,% Injury 14 DAT,"[3]; 8.8 g ae/ha, construct 3404 event 001 clone 019",30%
same,% Injury 14 DAT,"[3]; 8.8 g ae/ha, construct 3404 event 022 clone 021",0%
same,% Injury 14 DAT,"[3]; 8.8 g ae/ha, construct 3404 event 038 clone 017",0%
same,% Injury 14 DAT,"[3]; 17.5 g ae/ha, construct 3404 event 022 clone 017",0%
same,% Injury 14 DAT,"[3]; 35 g ae/ha, construct 3404 event 001 clone 020",0%
same,% Injury 14 DAT,"[3]; 35 g ae/ha, construct 3404 event 017 clone 018",0%
same,% Injury 14 DAT,"[3]; 35 g ae/ha, construct 3404 event 017 clone 019",0%
same,% Injury 14 DAT,"[3]; 35 g ae/ha, construct 3404 event 022 clone 022",0%
same,% Injury 14 DAT,"[3]; 35 g ae/ha, construct 3404 event 033 clone 012",0%
same,% Injury 14 DAT,"[3]; 35 g ae/ha, construct 3404 event 038 clone 019",70%
same,% Injury 14 DAT,"[3]; 35 g ae/ha, construct 3404 event 038 clone 020",80%
same,% Injury 14 DAT,"[3]; 70 g ae/ha, construct 3404 event 017 clone 020",0%
same,% Injury 14 DAT,"[3]; 70 g ae/ha, construct 3404 event 017 clone 021",0%
same,% Injury 14 DAT,"[3]; 70 g ae/ha, construct 3404 event 022 clone 023",0%
same,% Injury 14 DAT,"[3]; 70 g ae/ha, construct 3404 event 033 clone 013",0%
same,% Injury 14 DAT,"[3]; 70 g ae/ha, construct 3404 event 033 clone 014",0%
same,% Injury 14 DAT,"[3]; 70 g ae/ha, construct 3404 event 038 clone 021",80%
same,% Injury 14 DAT,"[3]; 70 g ae/ha, construct 3404 event 038 clone 022",80%
same,% Injury 14 DAT,"[3]; 140 g ae/ha, construct 3404 event 017 clone 022",0%
same,% Injury 14 DAT,"[3]; 140 g ae/ha, construct 3404 event 017 clone 023",30%
same,% Injury 14 DAT,"[3]; 140 g ae/ha, construct 3404 event 033 clone 015",0%
same,% Injury 14 DAT,"[3]; 280 g ae/ha, construct 3404 event 017 clone 024",30%
same,% Injury 14 DAT,"[3]; 280 g ae/ha, construct 3404 event 017 clone 025",20%
same,% Injury 14 DAT,"[3]; 280 g ae/ha, construct 3404 event 033 clone 016",0%
Nc1c(Cl)c(F)nc(OCC(=O)O)c1Cl [Fluroxypyr],enzyme activity on substrate (HPLC),"AAD1 (v1); AAD1 (v1) cell extract, same conditions as 2,4-D",No enzyme activity was detected
